Measured values as given in US20260070929A1, “METHODS AND COMPOSITIONS FOR MODULATING KRAS(G12D)” (Ranok Therapeutics (Hangzhou) Co. LTD., priority 2022, published 2026).

Legend:
[1] = system: ASPC1 pancreatic adenocarcinoma cells [homozygous G12D]; assay: Cancer cell line proliferation (CellTiter-Glo), ASPC1; format: cell-based; conditions: Homo sapiens, ASPC1, 72 h, 72 hr treatment, read-out: ASPC-1 CTG (EC50)
Protocol: (§1) The following cancer cell lines were employed: AGS gastric carcinoma [heterozygous G12D](ATCC, CRL-1739); A-427 lung carcinoma [heterozygous G12D](ATCC, HTB-53); ASPC1 pancreatic adenocarcinoma [homozygous G12D](ATCC, CRL-1682) and SW1990 pancreatic adenocarcinoma [homozygous G12D](ATCC CRL-2172). Cell lines were cultured essentially according to ATCC recommendations.
(§2) AGS, A-427, ASPC1, SW1990, and GP2D cells were plated in 96-well tissue culture plates at 4,000 cells/well and incubated at 37° C./5% CO2 for 72 hr in 100 μl of media. 3-fold serial dilutions of each test compound were prepared ranging from 20 μM to 1.02 nM. Each cell line was then treated with test compounds at various concentrations with a final concentration of 0.5% DMSO/well, and then incubated at 37° C./5% CO2 for 72 hr. 100 µl of CellTiter-Glo® Reagent (Promega Corporation, Madison, WI) was added to each well and processed according manufacturer's protocol. Results were analyzed and EC50 values were calculated in GraphPad 7 software.

KRAS(G12D)/SOS1 = target: T1, KRAS(G12D)/SOS1 (Homo sapiens, UniProt P01116, G12D); assay: KRAS(G12D)/SOS1 homogeneous time-resolved fluorescence (HTRF) assay; format: binding; conditions: absence of GTP; 4° C., 3 hr
T1 construct: purchased Cisbio 63ADK000CB17PEH
T1 sequence (P01116 1-188 isoform P01116-2 G12D): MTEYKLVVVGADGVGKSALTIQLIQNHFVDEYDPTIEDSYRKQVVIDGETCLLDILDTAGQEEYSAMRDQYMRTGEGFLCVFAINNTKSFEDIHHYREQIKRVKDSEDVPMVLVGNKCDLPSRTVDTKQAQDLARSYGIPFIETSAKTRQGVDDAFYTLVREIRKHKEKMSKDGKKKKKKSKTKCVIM
Protocol: Binding of test compounds to KRAS(G12D) target protein, which in turn blocks KRAS(G12D) interaction with the SOS1 protein, was measured in the absences of GTP by homogeneous time-resolved fluorescence using the KRAS-G12D/SOS1 Binding Assay Kit (Cisbio, 63ADK000CB17PEH), following the manufacturer's instructions, except as noted. 3-fold serial dilutions of each test compound were prepared ranging from 20 µM to 1.02 nM. The test compound was mixed and incubated with reaction components, incubated in a sealed plate at 4° C. for 3 hr and fluorescence was measured using a PerkinElmer Envision plate reader. The KRAS(G12D)-SOS1 IC50 values (the concentration of 50% of the maximal inhibition) were calculated using GraphPad Prism 7 software.

[2] = system: A-427 lung carcinoma cells [heterozygous G12D]; assay: Cancer cell line proliferation (CellTiter-Glo), A-427; format: cell-based; conditions: Homo sapiens, A-427 cells, 72 hr treatment, read-out: A427 CTG (EC50)
Protocol: as §1, §2

[3] = system: AGS gastric carcinoma cells [heterozygous G12D]; assay: Cancer cell line proliferation (CellTiter-Glo), AGS; format: cell-based; conditions: Homo sapiens, 72 hr treatment, read-out: AGS CTG (EC50)
Protocol: as §1, §2

SMILES | EC50 [1] | IC50 (KRAS(G12D)/SOS1) | EC50 [2] | EC50 [3]
CC(C)c1cc(-c2nnc(O)n2-c2ccc(CN3CCN(C(=O)C4CCN([C@H]5C[C@@H](COc6nc(N7CC8CCC(C7)N8)c7cnc(-c8cccc9cccc(Cl)c89)cc7n6)N(C)C5)CC4)CC3)cc2)c(O)cc1O [Compound 4] | > 1000 nM | 100 to 1000 nM | – | –
CC(C)c1cc(-c2nnc(O)n2-c2ccc(CN3CCN(C(=O)C4CCN([C@H]5C[C@@H](COc6nc(N7CC8CCC(C7)N8)c7cnc(-c8cccc9cccc(Cl)c89)c(F)c7n6)N(C)C5)CC4)CC3)cc2)c(O)cc1O [Compound 5] | > 1000 nM | < 100 nM | > 1000 nM | –
CCNC(=O)c1nnc(-c2cc(C(C)C)c(O)cc2O)n1-c1ccc(CN2CCN(C(=O)C3CCN([C@H]4C[C@@H](COc5nc(N6CC7CCC(C6)N7)c6cnc(-c7cccc8cccc(Cl)c78)c(F)c6n5)N(C)C4)CC3)CC2)cc1 [Compound 6] | > 1000 nM | 100 to 1000 nM | 100 to 1000 nM | 100 to 1000 nM
CNC(=O)c1nnc(-c2cc(C(C)C)c(O)cc2O)n1-c1ccc(CN2CCN(C(=O)C3CCN([C@H]4C[C@@H](COc5nc(N6CC7CCC(C6)N7)c6cnc(-c7cccc8cccc(Cl)c78)c(F)c6n5)N(C)C4)CC3)CC2)cc1 [Compound 7] | 100 to 1000 nM | 100 to 1000 nM | 100 to 1000 nM | < 100 nM
CNC(=O)c1nnc(-c2cc(C)c(O)cc2O)n1-c1ccc(CN2CCN(C(=O)C3CCN([C@H]4C[C@@H](COc5nc(C6CC7CCC(C6)N7)c6cnc(-c7cccc8cccc(Cl)c78)c(F)c6n5)N(C)C4)CC3)CC2)cc1 (stereo partly drawn) [Compound 8] | > 1000 nM | < 100 nM | > 1000 nM | > 1000 nM
CCc1cc(-c2nnc(C(=O)NC)n2-c2ccc(CN3CCN(C(=O)C4CCN([C@H]5C[C@@H](COc6nc(C7CC8CCC(C7)N8)c7cnc(-c8cccc9cccc(Cl)c89)c(F)c7n6)N(C)C5)CC4)CC3)cc2)c(O)cc1O (stereo partly drawn) [Compound 9] | > 1000 nM | 100 to 1000 nM | > 1000 nM | 100 to 1000 nM
C#Cc1cccc2cccc(-c3ncc4c(N5CC6CCC(C5)N6)nc(OCC5(CN6CCN(Cc7ccc(-n8c(O)nnc8-c8cc(C(C)C)c(O)cc8O)cc7)CC6)CC5)nc4c3F)c12 [Compound 10] | > 1000 nM | < 100 nM | 100 to 1000 nM | 100 to 1000 nM
C#Cc1cccc2cccc(-c3ncc4c(N5CC6CCC(C5)N6)nc(OCC5(CN6CCN(Cc7ccc8c(c7)CN(C(=O)c7cc(C(C)C)c(O)cc7O)C8)CC6)CC5)nc4c3F)c12 [Compound 11] | 100 to 1000 nM | < 100 nM | 100 to 1000 nM | 100 to 1000 nM
C#Cc1cccc2cccc(-c3ncc4c(N5CC6CCC(C5)N6)nc(OCC5(CN6CCN(Cc7ccc(-n8c(C(=O)NCC)nnc8-c8cc(C(C)C)c(O)cc8O)cc7)CC6)CC5)nc4c3F)c12 [Compound 12] | 100 to 1000 nM | < 100 nM | < 100 nM | < 100 nM
C#Cc1cccc2cccc(-c3ncc4c(N5CC6CCC(C5)N6)nc(OCCN5CCN(Cc6ccc(-n7c(O)nnc7-c7cc(C(C)C)c(O)cc7O)cc6)CC5)nc4c3F)c12 [Compound 13] | > 1000 nM | 100 to 1000 nM | 100 to 1000 nM | 100 to 1000 nM
C#Cc1cccc2cccc(-c3ncc4c(N5CC6CCC(C5)N6)nc(OCCN5CCN(Cc6ccc7c(c6)CN(C(=O)c6cc(C(C)C)c(O)cc6O)C7)CC5)nc4c3F)c12 [Compound 14] | 100 to 1000 nM | 100 to 1000 nM | 100 to 1000 nM | 100 to 1000 nM
C#Cc1cccc2cccc(-c3ncc4c(N5CC6CCC(C5)N6)nc(OC[C@@H]5CC[C@H](CN6CCN(Cc7ccc(-n8c(O)nnc8-c8cc(C(C)C)c(O)cc8O)cc7)CC6)N5C)nc4c3F)c12 [Compound 15] | > 1000 nM | < 100 nM | 100 to 1000 nM | 100 to 1000 nM
C#Cc1cccc2cccc(-c3ncc4c(N5CC6CCC(C5)N6)nc(OC[C@@H]5CC[C@H](CN6CCN(Cc7ccc(-n8c(C(=O)NCC)nnc8-c8cc(C(C)C)c(O)cc8O)cc7)CC6)N5C)nc4c3F)c12 [Compound 16] | 100 to 1000 nM | < 100 nM | < 100 nM | < 100 nM
C#Cc1cccc2cccc(-c3ncc4c(N5CC6CCC(C5)N6)nc(OCCN5CCN(Cc6ccc(-n7c(C(=O)NCC)nnc7-c7cc(C(C)C)c(O)cc7O)cc6)CC5)nc4c3F)c12 [Compound 17] | 100 to 1000 nM | < 100 nM | < 100 nM | < 100 nM
C#Cc1cccc2cccc(-c3ncc4c(N5CC6CCC(C5)N6)nc(OCC5(CN6CCN(C(=O)C7CCN(Cc8ccc(-n9c(O)nnc9-c9cc(C(C)C)c(O)cc9O)cc8)CC7)CC6)CC5)nc4c3F)c12 [Compound 18] | > 1000 nM | < 100 nM | 100 to 1000 nM | 100 to 1000 nM
C#Cc1cccc2cccc(-c3ncc4c(N5CC6CCC(C5)N6)nc(OCC5(CN6CCN(C(=O)C7CCN(Cc8ccc(-n9c(C(=O)NCC)nnc9-c9cc(C(C)C)c(O)cc9O)cc8)CC7)CC6)CC5)nc4c3F)c12 [Compound 19] | 100 to 1000 nM | < 100 nM | 100 to 1000 nM | < 100 nM
C#Cc1cccc2cccc(-c3ncc4c(N5CC6CCC(C5)N6)nc(OCCN5CCN(C(=O)C6CCN(Cc7ccc(-n8c(O)nnc8-c8cc(C(C)C)c(O)cc8O)cc7)CC6)CC5)nc4c3F)c12 [Compound 20] | > 1000 nM | 100 to 1000 nM | 100 to 1000 nM | 100 to 1000 nM
C#Cc1cccc2cccc(-c3ncc4c(N5CC6CCC(C5)N6)nc(OCCN5CCN(C(=O)C6CCN(Cc7ccc(-n8c(C(=O)NCC)nnc8-c8cc(C(C)C)c(O)cc8O)cc7)CC6)CC5)nc4c3F)c12 [Compound 21] | > 1000 nM | 100 to 1000 nM | 100 to 1000 nM | < 100 nM
Cc1cccc2cccc(-c3ncc4c(N5CC6CCC(C5)N6)nc(OC[C@@H]5C[C@H](N6CCN(Cc7ccc(-n8c(O)nnc8-c8cc(C(C)C)c(O)cc8O)cc7)CC6)CN5C)nc4c3F)c12 [Compound 22] | > 1000 nM | 100 to 1000 nM | 100 to 1000 nM | 100 to 1000 nM
Cc1cccc2cccc(-c3ncc4c(N5CC6CCC(C5)N6)nc(OC[C@@H]5C[C@H](N6CCC(C(=O)N7CCN(Cc8ccc(-n9c(O)nnc9-c9cc(C(C)C)c(O)cc9O)cc8)CC7)CC6)CN5C)nc4c3F)c12 [Compound 23] | > 1000 nM | 100 to 1000 nM | 100 to 1000 nM | 100 to 1000 nM
CCNC(=O)c1nnc(-c2cc(C(C)C)c(O)cc2O)n1-c1ccc(CN2CCC(C(=O)N3CCN([C@H]4C[C@@H](COc5nc(N6CC7CCC(C6)N7)c6cnc(-c7cccc8cccc(C)c78)c(F)c6n5)N(C)C4)CC3)CC2)cc1 [Compound 24] | 100 to 1000 nM | 100 to 1000 nM | < 100 nM | < 100 nM
C#Cc1cccc2cccc(-c3ncc4c(N5CC6CCC(C5)N6)nc(OC[C@@H]5C[C@H](N6CCN(Cc7ccc(-n8c(O)nnc8-c8cc(C(C)C)c(O)cc8O)cc7)CC6)CN5C)nc4c3F)c12 [Compound 26] | > 1000 nM | < 100 nM | 100 to 1000 nM | 100 to 1000 nM
C#Cc1cccc2cccc(-c3ncc4c(N5CC6CCC(C5)N6)nc(OCC5CC[C@H](CN6CCN(C(=O)C7CCN(Cc8ccc(-n9c(O)nnc9-c9cc(C(C)C)c(O)cc9O)cc8)CC7)CC6)N5C)nc4c3F)c12 (stereo partly drawn) [Compound 27] | 100 to 1000 nM | < 100 nM | < 100 nM | < 100 nM
C#Cc1cccc2cccc(-c3ncc4c(N5CC6CCC(C5)N6)nc(OC[C@@H]5CC[C@H](CN6CCN(C(=O)C7CCN(Cc8ccc(-n9c(C(=O)NCC)nnc9-c9cc(C(C)C)c(O)cc9O)cc8)CC7)CC6)N5C)nc4c3F)c12 [Compound 28] | 100 to 1000 nM | < 100 nM | < 100 nM | < 100 nM
C#Cc1cccc2cc(O)cc(-c3ncc4c(N5CC6CCC(C5)N6)nc(OCC5(CN6CCC(C(=O)N7CCN(Cc8ccc9c(c8)CN(C(=O)c8cc(C(C)C)c(O)cc8O)C9)CC7)CC6)CC5)nc4c3F)c12 [Example 3, 4-{5-[(4-{1-[(1-{[(4-{3,8-diazabicyclo[3.2.1]octan-3-yl}-7-(8-ethynyl-3-hydroxynaphthalen-1-yl)-8-fluoropyrido[4,3-d]pyrimidin-2-yl)oxy]methyl}cyclopropyl)methyl]piperidine-4-carbonyl}piperazin-1-yl)methyl]-1,3-dihydroisoindole-2-carbonyl}-6-isopropylbenzene-1,3-diol] | – | < 100 nM | 100 to 1000 nM | < 100 nM
